Experimental data as given in patent US10493043B2, “Pharmaceutical composition for preventing or treating autoimmune diseases comprising cedrol or derivatives thereof, or pharmaceutically acceptable salts thereof” (University of Seoul Industry Cooperation Foundation, priority 2017, dated 2019).

Assays:
human IL-17A expression = assay: IL-17A inhibition assay in IL-17 luciferase-(LUCPorter) stable reporter cell line; details: 10, 100, 1,000 μg/ml
psoriasis induced mice [1] = assay: Delay of psoriasis development in imiquimod-induced mice (ear thickness, keratosis, skin flair, pain, hemorrhage spots, wrinkles); type: in vivo, mouse; details: for cumulative psoriasis area severity index (ear thickness, keratosis, skin flair), in words: oral 100 mg/kg once a day, FIG. 7; for number of mice showing hemorrhage spots / number of mice showing skin wrinkles / number of mice showing skin pain: oral 100 mg/kg
Procedure: (§1) To investigate the delayed effect of cedrol, cedryl acetate, and alpha-cedrene on the development of psoriasis, total 5 groups of mice were prepared (8 mice/group). First, the hair of the entire back of the 8-week-old male Balb/c mouse whose immune system was weakened was removed by using a hair clipper (Kimlaube Hair pen 325,327, Rikei, Korea). In the middle of the shaved back of the mouse, 2 mg of imiquimod (3M Health Care Limited, England) was applied in the area of 2 cm×1.5 cm and also 1,125 mg of imiquimod was applied on the right ear of the mouse every day once a day to induce psoriasis.
The mice prepared above were divided into the distilled water treated group (IMQ), the cedrol treated group (C), the cedryl acetate treated group (CA), and the alpha-cedrene treated group (CE). At this time, the mice were orally treated with distilled water at the concentration of 200 ? /mouse and cedrol or its derivatives at the concentration of 200 ? /mouse (100 mg/kg). The day when distilled water or the compound administration started was recorded as day 0 and the administration was performed once a day for a week, during which photo-recording was performed every day (FIGS. 2A˜2D). In the meantime, instead of applying imiquimod, 40 mg of vaseline was applied on the back of the control group (CONT) and 22.5 mg of vaseline was applied on the right ear of the control group. And the control group was orally administered with distilled water (200 ? /mouse).
Then, the psoriasis area severity index (PASI) was calculated with the range of 1˜4 to confirm the reduction effect of the compounds on the ear thickness.
Then, the psoriasis area severity index (PASI) was calculated to confirm the reduction effect of the compounds on keratosis. Keratosis is a symptom of psoriasis. The application of IMQ can induce keratosis.
Then, the psoriasis area severity index (PASI) was calculated to confirm the reduction effect of the compounds on skin flair. Skin flair is a symptom of psoriasis. The application of IMQ can induce skin flair.
The psoriasis area severity index obtained in Examples <2-3> and <2-5> was accumulated to compare the psoriasis area severity index for ear thickness, keratosis and skin flair of the mouse groups respectively treated with cedrol, cedryl acetate, and alpha-cedrene via oral-administration.
When the back of the psoriasis induced mice orally administered with cedrol, cedryl acetate, and alpha-cedrene of Example <2-1> was pinched, those mice who sound painfully with strong rejection were counted. Skin pain is a symptom of psoriasis, and when IMQ is applied, skin pain becomes stronger as time goes by.
The psoriasis induced mice orally administered with cedrol, cedryl acetate, and alpha-cedrene of Example <2-1> were observed by the naked eye, and the number of mice showing hemorrhage spots was counted. Hemorrhage spot is a symptom of psoriasis, and when IMQ is applied, the number of skin hemorrhage spots increases as time goes by.
The psoriasis induced mice orally administered with cedrol, cedryl acetate, and alpha-cedrene of Example <2-1> were observed by the naked eye, and the number of mice showing skin wrinkles was counted. Skin wrinkle is a symptom of psoriasis, and when IMQ is applied, skin keratinization increases and accordingly skin wrinkles are formed as time goes by.

psoriasis induced mice [2] = assay: Therapeutic (recovery) effect in psoriasis induced mice after termination of imiquimod application; type: in vivo, mouse; details: for PASI reflecting skin flair: distilled water 0.7±0.6; for number of mice showing hemorrhage spots / number of mice showing skin wrinkles: oral 100 mg/kg
Procedure: (§2) Imiquimod was applied to the psoriasis induced mice which had developed psoriasis for a week in Example <2-1>. The application was stopped 8 days after the application began. The groups CON and IMQ were treated with distilled water, the group C was treated with cedrol, the group CA was treated with cedryl acetate, the group CE was treated with alpha-cedrene alone at the concentration of 100 mg/kg in 200 ? , every day via oral-administration. Day 8 was the day the imiquimod application was stopped, since then the compounds were administered for 1 week once a day, during which photo-recording was performed (FIGS. 13A˜13D).
The psoriasis area severity index (Psoriasis Area Severity Index, PASI) was given from the point 1 to point 4, based on which the recovery effect on the ear thickness was evaluated.
Then, the psoriasis area severity index (Psoriasis Area Severity Index, PASI) was calculated, based on which the recovery effect on keratosis was evaluated.
The psoriasis area severity index obtained in Examples <3-2> and <3-4> was accumulated to compare the psoriasis area severity index for ear thickness, keratosis and skin flair of the mouse groups respectively treated with cedrol, cedryl acetate, and alpha-cedrene via oral-administration.
The psoriasis induced mice orally administered with cedrol, cedryl acetate, and alpha-cedrene of Example <3-1> were observed by the naked eye, and the number of mice showing the recovery of hemorrhage spots was counted.
The psoriasis induced mice orally administered with cedrol, cedryl acetate, and alpha-cedrene of Example <3-1> were observed by the naked eye, and the number of mice showing the recovery of skin wrinkles was counted.

psoriasis induced mice [3] = assay: Hair regrowth in psoriasis induced mice after termination of imiquimod application; type: in vivo, mouse; details: oral 100 mg/kg
Procedure: as §2
The psoriasis induced mice orally administered with cedrol, cedryl acetate, and alpha-cedrene of Example <3-1> were observed by the naked eye, and the number of mice showing hair regrowth was counted.

[4] = Weight changes in psoriasis induced mice during oral administration; type: in vivo, mouse; details: oral 100 mg/kg once a day during IMQ application, for 7 days; IMQ alone reduced by 0.48 g
Procedure: as §1
The mice prepared above were divided into the distilled water treated group (IMQ), the cedrol treated group (C), the cedryl acetate treated group (CA), and the alpha-cedrene treated group (CE). […] The day when distilled water or the compound administration started was recorded as day 0 and the administration was performed once a day for a week, during which photo-recording was performed every day (FIGS. 2A˜2D). […]
To compare the weight changes in the psoriasis induced mice according to the oral administration of cedrol, cedryl acetate, and alpha-cedrene of Example <2-1>, the weight of each mouse was measured at the same time every day for a week.

[5] = day 7, 8 mice/group, IMQ alone 3 mice
[6] = day 7, 8 mice/group, IMQ alone 5 mice
[7] = oral 100 mg/kg once a day, day 16
[8] = day 16, distilled water 1 mouse
[9] = day 16, distilled water one mouse
[10] = oral 100 mg/kg once a day, day 15

SMILES | suppression of the expression of IL-17A (in words) (human IL-17A expression) | cumulative psoriasis area severity index (ear thickness, keratosis, skin flair), in words (psoriasis induced mice [1]) | number of mice showing hemorrhage spots (psoriasis induced mice [1]; day 5, 8 mice/group) | number of mice showing skin wrinkles (psoriasis induced mice [1]; [5]) | number of mice showing hemorrhage spots (psoriasis induced mice [1]; [6]) | PASI reflecting skin flair (psoriasis induced mice [2]; [7]) | number of mice showing hemorrhage spots (psoriasis induced mice [2]; [8]) | number of mice showing skin wrinkles (psoriasis induced mice [2]; [9]) | number of mice showing hair regrowth (psoriasis induced mice [3]; day 16, distilled water 5 mice) | number of mice showing skin wrinkles (psoriasis induced mice [1]; day 5, 8 mice/group) | also measured
CC1=CC[C@@]23C[C@@H]1C(C)(C)[C@@H]2CC[C@H]3C [alpha-cedrene, Alpha-cedrene] | dose-dependently | strongest reduction effect | two mice | one mouse | one mouse | disappeared | no mouse | no mouse | all the mice | – | number of mice showing skin wrinkles (psoriasis induced mice [1]; day 6, 8 mice/group): one mouse; number of mice showing skin pain (psoriasis induced mice [1]; during the 7 day observation period): no mice; number of mice showing hair regrowth (psoriasis induced mice [3]; day 13): one mouse
C[C@@H]1CC[C@H]2C(C)(C)[C@H]3C[C@@]12CC[C@@]3(C)O [cedrol, Cedrol] | dose-dependently | – | – | – | – | disappeared | – | – | all the mice | one mouse | weight change (increase) [4]: 0.025 g; number of mice showing hemorrhage spots (psoriasis induced mice [1]; day 4, 8 mice/group): one mouse; number of mice showing skin pain (psoriasis induced mice [1]; day 4, 8 mice/group): one mouse; number of mice showing skin pain (psoriasis induced mice [1]; day 5, 8 mice/group): no mice; cumulative psoriasis area severity index (ear thickness, keratosis, skin flair), recovery in words (psoriasis induced mice [2]; oral 100 mg/kg once a day, FIG. 17): strongest recovery effect; PASI reflecting keratosis (psoriasis induced mice [2]; [10]): recovered to normal; number of mice showing skin wrinkles (psoriasis induced mice [2]; after day 15): no mouse; number of mice showing hemorrhage spots (psoriasis induced mice [2]; day 12): no mouse
CC(=O)O[C@]1(C)CC[C@@]23C[C@@H]1C(C)(C)[C@@H]2CC[C@H]3C [cedryl acetate, Cedryl acetate] | dose-dependently | strongest reduction effect | one mouse | one mouse | one mouse | – | no mouse | no mouse | – | one mouse | number of mice showing skin pain (psoriasis induced mice [1]; day 6, 8 mice/group): one mouse; number of mice showing skin pain (psoriasis induced mice [1]; [6]): no mice; PASI reflecting the ear thickness (psoriasis induced mice [2]; [10]): recovered to normal; number of mice showing hair regrowth (psoriasis induced mice [3]; day 14, distilled water one mouse): one mouse
